The record followed here is PMC12040169 (PLOS Biology, 2025).

The data set in a line: in vitro. The settings on record: human, hela cells, % viability.

Consider `Cc1ccc(OCC(=O)NNC(=O)c2ccco2)cc1` [CBK261800], for which the viability at 28.5 h, 10 µM came to 96.1%.

Consider `Cc1cc(/C=N\NC(=O)c2cc3ccccc3cc2O)c(C)n1-c1ccccc1` [CBK261801], for which the viability at 28.5 h, 10 µM was found to be 84.6%.

As to `c1ccc(Nc2ccccc2Nc2ccccn2)nc1` [CBK261806], the viability at 28.5 h, 10 µM stood at 93.5%.

With `O=C(Nc1sc2c(c1CN1CCCCCC1)CCCC2)c1ccccc1` [CBK261811], the viability at 28.5 h, 10 µM stood at 91%.

`C/C(=N\N)c1ccc2[nH]c3c(c2c1)CCC/C3=N\N` [CBK261812]: the viability at 28.5 h, 10 µM is 81.2%.

In the case of `Nc1nonc1NC(=O)N/N=C/c1ccc(C(F)(F)F)cc1` [CBK261813], the viability at 28.5 h, 10 µM stood at 99.8%.

On to `CC(Sc1nc2c(N)ncnc2[nH]1)C(=O)O` (stereo not drawn) [CBK261814], for which the viability at 28.5 h, 10 µM was determined as 106%.

Take `O=C(N/N=C/c1c(F)cccc1Cl)c1ccccc1O` [CBK261815]: the viability at 28.5 h, 10 µM came out at 113%.

Turning to `C(=N\N=C(/c1ccccc1)C12CN3CN(CN(C3)C1)C2)/c1ccc2c(c1)OCO2` [CBK261816], the viability at 28.5 h, 10 µM turned out to be 102%.

For the compound `O=C1NC(=S)NC(=O)C1=Cc1ccc(-c2ccc([N+](=O)[O-])cc2Cl)o1` [CBK261820], where the note is “bulk resorufin, single well”, the viability at 28.5 h, 10 µM was determined as 89.2%.

Take `O=C(N/N=C/c1ccc([N+](=O)[O-])cc1)C(=O)Nc1cccc(Cl)c1` [CBK261821]: the viability at 28.5 h, 10 µM was 95.8%.

Consider `CCOc1ccc(NC(=O)C(=O)NC2CCCCC2)cc1` [CBK261822], for which the viability at 28.5 h, 10 µM came to 105%.

Turning to `CC1(C)CC(=O)C2=C(C1)c1c(ccc3ccccc13)NC2c1ccc(-c2ccc(O)c(C(=O)O)c2)o1` (stereo not drawn) [CBK261823], the viability at 28.5 h, 10 µM is 108%.

As to `O=C1NC(=S)N(c2ccc(F)cc2)C(=O)/C1=C\NC1CCN(Cc2ccccc2)CC1` [CBK261825], the viability at 28.5 h, 10 µM (bulk resorufin, single well) was 93%.

In the case of `CN(C)CCN/C=C1/C(=O)NC(=S)N(c2ccccc2Cl)C1=O` [CBK261826], the viability at 28.5 h, 10 µM (bulk resorufin, single well) is 86.4%.

Regarding `Cc1cccc(N2C(=O)NC(=O)/C(=C/NC3CCN(Cc4ccccc4)CC3)C2=O)c1` [CBK261827], the viability at 28.5 h, 10 µM (bulk resorufin, single well) amounted to 92.2%.

With `CC1(C(=O)O)CCC(C(=O)O)C1(C)C` (stereo not drawn) [CBK261830], the viability at 28.5 h, 10 µM stood at 96.1%.

Consider `O=[N+]([O-])c1ccc(O)c(/C=N/C(CO)(CO)CO)c1` [CBK261835], for which the viability at 28.5 h, 10 µM was 89.3%.

Consider `O=C(O)CC1c2ccccc2Oc2ccccc21` [CBK261836], for which the viability at 28.5 h, 10 µM worked out at 92%.

Take `CC1=NN(c2ccccc2)C(=O)/C1=C(/C)NNC(=O)c1ccccn1` [CBK261837]: the viability at 28.5 h, 10 µM worked out at 91.7%.

As for `O=C(O)/C(O)=C/C(=O)c1ccc(Cl)cc1` [CBK261841], the viability at 28.5 h, 10 µM came out at 111%.

Take `Cc1ccc(C(=O)NNC(=O)/C=C\C(=O)O)cc1` [CBK261842]: the viability at 28.5 h, 10 µM was 86.9%.

Turning to `O=C1OC(c2ccc(N3C(=O)c4cccc5cccc(c45)C3=O)cc2)(c2ccc(N3C(=O)c4cccc5cccc(c45)C3=O)cc2)c2ccccc21` [CBK261845], the viability at 28.5 h, 10 µM came out at 95.3%.

For `CN1CCN(c2ccc([N+](=O)[O-])c(NCCCO)c2)CC1` [CBK261846C], the viability at 28.5 h, 10 µM is 86.5%.

As to `O=c1[nH]cc(COCc2ccccc2)c(=O)[nH]1` [CBK261847], the viability at 28.5 h, 10 µM was determined as 94%.

Consider `COc1ccc(CN2CCC(N3CCCCC3)CC2)c(OC)c1` [CBK261848], for which the viability at 28.5 h, 10 µM is 103%.

With `COc1ccc(O)c(CN2CCC(N3CCCCC3)CC2)c1` [CBK261849], the viability at 28.5 h, 10 µM came to 94.9%.

`COc1cc(CN(C)Cc2cccc3ccccc23)c([N+](=O)[O-])cc1OC` [CBK261850]: the viability at 28.5 h, 10 µM worked out at 89.3%.

`COc1cc([N+](=O)[O-])cc(CN2CCN(CCO)CC2)c1O` [CBK261851]: the viability at 28.5 h, 10 µM turned out to be 92.4%.

On to `O=[N+]([O-])c1ccccc1CN1CCC(N2CCCCC2)CC1` [CBK261852], for which the viability at 28.5 h, 10 µM is 88.7%.

For the compound `COc1ccc(CN2CC=C(c3ccc(F)cc3)CC2)cc1OCc1ccccc1` [CBK261853], the viability at 28.5 h, 10 µM turned out to be 96.1%.

For `FC(F)(F)c1cccc(CN2CCC(N3CCCCC3)CC2)c1` [CBK261855], the viability at 28.5 h, 10 µM came out at 90.1%.

Turning to `CN(C)CCN(C)Cc1ccc2c(c1)Cc1ccccc1-2` [CBK261856], the viability at 28.5 h, 10 µM is 93.3%.

Consider `CN(Cc1cccc(Oc2ccccc2)c1)Cc1cccc2ccccc12` [CBK261857], for which the viability at 28.5 h, 10 µM was found to be 96.9%.

On to `COc1cc(CN2CCC(N3CCCCC3)CC2)c([N+](=O)[O-])cc1OC` [CBK261858], for which the viability at 28.5 h, 10 µM was found to be 93.3%.

Take `CN(C)CCN(C)Cc1ccc2ccc3cccc4ccc1c2c34` [CBK261860]: the viability at 28.5 h, 10 µM amounted to 103%.

`CC1CCCN(Cc2ccccc2[N+](=O)[O-])C1` (stereo not drawn) [CBK261862]: the viability at 28.5 h, 10 µM amounted to 102%.

`O=[N+]([O-])c1ccccc1/C=C/CN1CCN(CCO)CC1` [CBK261863]: the viability at 28.5 h, 10 µM worked out at 85.8%.

For `c1ccc(COc2ccc(CN3CCN(c4ccccn4)CC3)cc2)cc1` [CBK261865], the viability at 28.5 h, 10 µM was found to be 89.3%.

`O=[N+]([O-])c1ccc(CN(CCc2ccccc2)Cc2ccccc2)cc1` [CBK261866]: the viability at 28.5 h, 10 µM was determined as 99.2%.

With `COc1cc(CN2CCN(c3cc(C)ccc3C)CC2)cc([N+](=O)[O-])c1O` [CBK261868], the viability at 28.5 h, 10 µM came out at 95.5%.

As for `CCOC(=O)CN(C)Cc1c[nH]c2ccccc12` [CBK261869], the viability at 28.5 h, 10 µM worked out at 107%.

In the case of `c1ccc(Oc2cccc(CN3CCOCC3)c2)cc1` [CBK261870], the viability at 28.5 h, 10 µM turned out to be 95.3%.

For the compound `CC(CCN(C)CCN(C)C)c1ccccc1` (stereo not drawn) [CBK261871], the viability at 28.5 h, 10 µM came to 87.6%.

Regarding `OCCN1CCN(CCCc2ccccc2)CC1` [CBK261872], the viability at 28.5 h, 10 µM was 86%.

With `OCCN(CCO)CC1CC2C=CC1C2` (stereo not drawn) [CBK261874], the viability at 28.5 h, 10 µM stood at 105%.

On to `CN(C)CCN(C)Cc1ccccc1O` [CBK261875], for which the viability at 28.5 h, 10 µM turned out to be 103%.

`CCN(CCN(C)C)Cc1ccc(F)cc1F` [CBK261877]: the viability at 28.5 h, 10 µM was determined as 93.1%.

On to `CN(Cc1ccccc1)Cc1ccccc1O` [CBK261879], for which the viability at 28.5 h, 10 µM was found to be 92.4%.

For the compound `COc1cc(Br)cc(CN2CCN(Cc3ccccc3)CC2)c1O` [CBK261880], for the setting “bulk resorufin, single well”, the viability at 28.5 h, 10 µM was 108%.

Consider `OCCN(Cc1ccccc1)Cc1ccc(-c2ccccc2)cc1` [CBK261883], for which the viability at 28.5 h, 10 µM amounted to 102%.

Take `CCN(Cc1ccccc1)Cc1ccco1` [CBK261884]: the viability at 28.5 h, 10 µM turned out to be 111%.

On to `NC(=O)C1CCN(Cc2cc3c(cc2[N+](=O)[O-])OCO3)CC1` [CBK261885], for which the viability at 28.5 h, 10 µM worked out at 91.7%.

As for `OCCN(CCO)Cc1c(Cl)cccc1Cl` [CBK261887], the viability at 28.5 h, 10 µM was 93%.

In the case of `COc1ccc(CN2CCN(c3ccccn3)CC2)cc1OCc1ccccc1` [CBK261889], the viability at 28.5 h, 10 µM turned out to be 84.9%.

As for `CCOC(=O)CN(C)Cc1ccccc1Br` [CBK261891], the viability at 28.5 h, 10 µM was found to be 108%.

In the case of `C(=C\c1ccccc1)/CN1CCN(CCc2ccccc2)CC1` [CBK261893], the viability at 28.5 h, 10 µM was 93.4%.

For `O=[N+]([O-])c1ccc(N2CCN(C/C=C/c3ccccc3[N+](=O)[O-])CC2)cc1` [CBK261895], the viability at 28.5 h, 10 µM came to 95%.

Take `C(=C\c1ccccc1)/CN1CCN(CCCc2ccccc2)CC1` [CBK261897]: the viability at 28.5 h, 10 µM came out at 90%.

For `COc1ccc2ccccc2c1CN1CCN(C/C=C/c2ccccc2)CC1` [CBK261899], the viability at 28.5 h, 10 µM is 108%.

In the case of `CCn1c2ccccc2c2cc(CN(C)Cc3ccccc3)ccc21` [CBK261901], the viability at 28.5 h, 10 µM was 94.1%.

On to `CN1CCC(N(C)C/C(Cl)=C/c2ccccc2)CC1` [CBK261903], for which the viability at 28.5 h, 10 µM came to 92.1%.

Consider `COc1cc(CN2CCN(c3ccccn3)CC2)ccc1OCc1ccccc1` [CBK261906], for which the viability at 28.5 h, 10 µM was 88.8%.

On to `C(=C\c1ccccc1)/CN1CCN(c2ncccn2)CC1` [CBK261909], for which the viability at 28.5 h, 10 µM was 92.3%.

Take `CCN1CCN(Cc2ccc(OC)c(OCc3ccccc3)c2)CC1` [CBK261910]: the viability at 28.5 h, 10 µM came out at 89.4%.

For `COc1cc(CN2CCC(C)CC2)c([N+](=O)[O-])cc1OC` [CBK261911], the viability at 28.5 h, 10 µM was found to be 90%.

With `COc1ccc(CN(C)CCN(C)C)c(O)c1` [CBK261915], the viability at 28.5 h, 10 µM came out at 114%.

Consider `CN(C1CCCCC1)C1CCN(CCc2ccccc2)CC1` [CBK261918], for which the viability at 28.5 h, 10 µM worked out at 97.5%.

`OCCN(CCO)Cc1ccc(Cl)c(Cl)c1` [CBK261919]: the viability at 28.5 h, 10 µM came to 88.1%.

Take `COc1ccc(CCC(C)N2CCN(c3ccc(F)cc3)CC2)cc1` (stereo not drawn) [CBK261922]: the viability at 28.5 h, 10 µM stood at 103%.

Take `CN(C)CC(C)(C)CNC1CCN(C)CC1` [CBK261926]: the viability at 28.5 h, 10 µM amounted to 95.2%.

`CN(C)CCN(Cc1ccccc1)Cc1ccc(C(F)(F)F)cc1` [CBK261927]: the viability at 28.5 h, 10 µM was found to be 120%.

With `CN(C)CCN(Cc1ccccc1)Cc1ccc([N+](=O)[O-])cc1` [CBK261929], the viability at 28.5 h, 10 µM came to 87.8%.

For `CSc1ccc(CN(CCO)CCO)cc1` [CBK261931], the viability at 28.5 h, 10 µM came out at 98.6%.

Regarding `CCCN1CCC(NC(C)CCCC(C)(C)O)CC1` (stereo not drawn) [CBK261932], the viability at 28.5 h, 10 µM is 99.3%.

On to `CC(CCc1ccccc1)N(C)CCN(C)C` (stereo not drawn) [CBK261933], for which the viability at 28.5 h, 10 µM was 80.5%.

For `CCCN1CCC(NCC(C)(C)CN(C)C)CC1` [CBK261934], the viability at 28.5 h, 10 µM was determined as 89.3%.

For `CCCN1CCC(N(C)CCN(CC)CC)CC1` [CBK261935], the viability at 28.5 h, 10 µM was determined as 104%.

Regarding `FC(F)(F)c1ccc2c(c1)N(CCCN1CCN(C34CC5CC(CC(C5)C3)C4)CC1)c1ccccc1S2` [CBK261938], the viability at 28.5 h, 10 µM was determined as 102%.

`O=C(O)CCCCCNS(=O)(=O)c1ccc(Cl)cc1` [CBK261940]: the viability at 28.5 h, 10 µM was determined as 81.4%.

As to `CC1(C)CC(O[Si](C)(C)OC2CC(C)(C)NC(C)(C)C2)CC(C)(C)N1` [CBK261942], the viability at 28.5 h, 10 µM was found to be 99.3%.

With `COc1ccc(C(=O)Nc2ccc3oc(-c4cccc(C)c4)nc3c2)cc1Br` [CBK261944], the viability at 28.5 h, 10 µM is 100%.

Turning to `Cc1cc(Cl)ccc1NC(=O)CCC(=O)N/N=C/c1cccnc1` [CBK261945], the viability at 28.5 h, 10 µM came out at 100%.

As to `C/C(=N\NC(=O)CCC(=O)Nc1ccccc1C)c1ccc(O)cc1O` [CBK261946], the viability at 28.5 h, 10 µM is 94.2%.

As a reminder, the viability is a read-out of living cells in per cent, often relative to untreated cells.
